PubChem BioAssay (NCI)
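Following 48 hours of exposure in 96-well plates, responses at five concentrations were used to interpolate endpoints linearly. GI50 is the concentration that inhibits growth by half. The concentration for full growth arrest is given as TGI.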

Columns and labels:
Test in all cases: inhibition of tumour cell growth, NCI panel, 48 h
[1] = test system: BT-549 breast
[2] = test system: UO-31 renal
[3] = test system: A498 renal
[4] = test system: SF-539 CNS
[5] = test system: NCI-H522 lung
[6] = test system: HOP-92 NSCLC
[7] = test system: MDA-MB-435
[8] = test system: OVCAR-4 ovarian
[9] = test system: NCI/ADR-RES ovarian
[10] = test system: RXF 393 renal
[11] = test system: SF-295 CNS
[12] = test system: HL-60(TB) leukemia
[13] = test system: SK-MEL-28 melanoma
[14] = test system: A549 NSCLC
[15] = test system: OVCAR-8 ovarian
[16] = test system: UACC-62 melanoma
[17] = test system: EKVX NSCLC
[18] = test system: HCT-15 colon
[19] = test system: K-562 leukemia
[20] = test system: M14 melanoma
[21] = test system: HOP-62 NSCLC
[22] = test system: SR leukemia
[23] = test system: UACC-257 melanoma
[24] = test system: MCF7 breast
[25] = test system: SN12C renal
[26] = test system: MDA-MB-231 breast
[27] = test system: SF-268 CNS
[28] = test system: HT29 colon
[29] = test system: SW-620 colon
[30] = test system: MALME-3M melanoma
[31] = test system: KM12 colon
[32] = test system: PC-3 prostate
[33] = test system: RPMI-8226 leukemia
[34] = test system: 786-0 renal
[35] = test system: OVCAR-5 ovarian
[36] = test system: CAKI-1 renal
[37] = test system: IGROV1 ovarian
[38] = test system: U251 CNS
[39] = test system: MOLT-4 leukemia
[40] = test system: HCT-116 colon
[41] = test system: SK-MEL-2 melanoma
[42] = test system: SNB-75 CNS
[43] = test system: DU-145 prostate
[44] = test system: HS 578T breast
[45] = test system: SK-MEL-5 melanoma
[46] = test system: NCI-H226 lung
[47] = test system: OVCAR-3 ovarian
[48] = test system: ACHN renal
[49] = test system: NCI-H23 lung
[50] = test system: TK-10 renal
[51] = test system: NCI-H460 lung
[52] = test system: LOX IMVI melanoma
[53] = test system: SK-OV-3 ovarian
[54] = test system: T-47D breast
[55] = test system: HCC-2998 colon
[56] = test system: SNB-19 CNS
[57] = test system: CCRF-CEM leukemia

Nc1ncnc2c1ncn2Cc1cccc(CCl)c1
TGI [1]: 25.8 µM | TGI [2]: 32.5 µM | TGI [3]: 30 µM | TGI [4]: 33.4 µM | TGI [5]: 32.5 µM | TGI [6]: 65.5 µM | TGI [7]: 44.6 µM | TGI [8]: 47.3 µM | TGI [9]: 50.8 µM | TGI [10]: 18.8 µM | TGI [11]: 41.8 µM | TGI [12]: > 100 µM | TGI [13]: 51.1 µM | TGI [14]: 91.4 µM | TGI [15]: 42.9 µM | TGI [16]: 25.8 µM | TGI [17]: 37.1 µM | TGI [18]: 41.7 µM | TGI [19]: > 100 µM | TGI [20]: 29.7 µM | TGI [21]: 30.5 µM | TGI [22]: 46 µM | TGI [23]: 30.4 µM | TGI [24]: 30.3 µM | TGI [25]: 29.3 µM | TGI [26]: 34 µM | TGI [27]: 32.4 µM | TGI [28]: > 100 µM | TGI [29]: 29.9 µM | TGI [30]: 37.7 µM | TGI [31]: 33 µM | TGI [32]: 35.5 µM | TGI [33]: 44.5 µM | TGI [34]: 34.6 µM | TGI [35]: 32.1 µM | TGI [36]: 37 µM | TGI [37]: 31.8 µM | TGI [38]: 32.5 µM | TGI [39]: > 100 µM | TGI [40]: 24.6 µM | TGI [41]: 31.9 µM | TGI [42]: > 100 µM | TGI [43]: 27.1 µM | TGI [44]: > 100 µM | TGI [45]: 30.4 µM | TGI [46]: 33.4 µM | TGI [47]: 32.3 µM | TGI [48]: 37.2 µM | TGI [49]: 36.5 µM | TGI [50]: 34.4 µM | TGI [51]: 29.9 µM | TGI [52]: 71.7 µM

CC1(C)CC[C@]2(C(N)=O)CC[C@]3(C)C(=CC[C@@H]4[C@@]5(C)C/C(=C/c6ccncc6)C(=O)C(C)(C)[C@@H]5CC[C@]43C)[C@@H]2C1
GI50 [2]: 1.48 µM | TGI [2]: 2.91 µM | GI50 [3]: 1.7 µM | TGI [3]: 3.38 µM | GI50 [4]: 1.81 µM | TGI [4]: 3.34 µM | GI50 [53]: 3.13 µM | TGI [53]: 11.9 µM | GI50 [54]: 2.55 µM | TGI [54]: 12.4 µM | GI50 [5]: 2.28 µM | TGI [5]: 7.76 µM | GI50 [6]: 1.76 µM | TGI [6]: 4.77 µM | GI50 [8]: 3 µM | TGI [8]: > 100 µM | GI50 [9]: 2.42 µM | TGI [9]: 6.99 µM | GI50 [10]: 1.59 µM | TGI [10]: 3.05 µM | GI50 [11]: 1.67 µM | TGI [11]: 3.42 µM | GI50 [55]: 1.87 µM | TGI [55]: 3.45 µM | GI50 [12]: 1.98 µM | TGI [12]: 4.59 µM | GI50 [13]: 1.81 µM | TGI [13]: 3.39 µM | GI50 [14]: 2.35 µM | TGI [14]: 8.22 µM | GI50 [15]: 3.2 µM | TGI [15]: > 100 µM | GI50 [16]: 1.61 µM | TGI [16]: 3.34 µM | GI50 [17]: 2.44 µM | TGI [17]: 9.46 µM | GI50 [56]: 1.59 µM | TGI [56]: 3.24 µM | GI50 [18]: 1.69 µM | TGI [18]: 3.46 µM | GI50 [19]: 2.28 µM | TGI [19]: 6.71 µM | GI50 [20]: 2.05 µM | TGI [20]: 4.62 µM | GI50 [21]: 2.01 µM | TGI [21]: 4.71 µM | GI50 [22]: 2.18 µM | TGI [22]: 6.5 µM | GI50 [23]: 2.32 µM | TGI [23]: 6.68 µM | GI50 [24]: 2.52 µM | TGI [24]: 10.5 µM | GI50 [25]: 1.82 µM | TGI [25]: 3.67 µM | GI50 [26]: 1.86 µM | TGI [26]: 4.15 µM | GI50 [27]: 2.15 µM | TGI [27]: 5.49 µM | GI50 [29]: 2.04 µM | TGI [29]: 4.62 µM | GI50 [30]: 1.71 µM | TGI [30]: 3.27 µM | GI50 [31]: 1.79 µM | TGI [31]: 3.41 µM | GI50 [32]: 1.37 µM | TGI [32]: 3.51 µM | GI50 [33]: 1.73 µM | TGI [33]: 4.44 µM | GI50 [34]: 2.25 µM | TGI [34]: 7.62 µM | GI50 [35]: 1.61 µM | TGI [35]: 3.16 µM | GI50 [37]: 2.29 µM | TGI [37]: 6.6 µM | GI50 [38]: 1.69 µM | TGI [38]: 3.27 µM | GI50 [39]: 2 µM | TGI [39]: 6.02 µM | GI50 [40]: 1.49 µM | TGI [40]: 2.99 µM | GI50 [41]: 1.92 µM | TGI [41]: 3.97 µM | GI50 [42]: 2.48 µM | TGI [42]: 8.22 µM | GI50 [43]: 2.91 µM | TGI [43]: 7.85 µM | GI50 [44]: 3.07 µM | TGI [44]: > 100 µM | GI50 [57]: 2.13 µM | TGI [57]: 5.45 µM | GI50 [45]: 1.77 µM | TGI [45]: 3.27 µM | GI50 [47]: 1.87 µM | TGI [47]: 3.45 µM | GI50 [48]: 2.02 µM | TGI [48]: 4.33 µM | GI50 [49]: 2.89 µM | TGI [49]: 9.62 µM | GI50 [50]: 2.43 µM | TGI [50]: 7.5 µM
